# How the values were obtained:
# [1] = system: PBMCs from asthma patients; test: Cytokine production in PHA stimulated PBMCs cultured ex vivo with sitostanol; format: cell-based, human; conditions: sitostanol 1.2 μM, 52 hours PHA stimulation
# From the text: 20 people were enrolled in the study: 10 asthma patients and 10 healthy controls. Healthy controls were matched to the asthma patients in sex, age and body mass index (BMI). Exclusion criteria were smoking, diabetes, autoimmune diseases, inflammatory diseases, and the use of plant stanol or plant sterol enriched food products. Blood was taken twice from each participant, with a four-week interval. Peripheral blood mononuclear cells (PBMCs) were isolated and cultured with either cholesterol or sitostanol added to the culture. The concentration of PBMCs in the test culture was the same as in blood naturally. The concentrations of sitostanol and cholesterol were 1.2 μM. After 52 hours of stimulation with PHA (phytohemagglutinin), cytokine concentrations in the culture medium were determined. Cholesterol was added as a control to see whether the observed effects were specific plant stanol effects.
# TLR2 = biological target: T1, TLR2 (Homo sapiens, UniProt O60603); test: Mechanism of the Th1 shift: TLR2 activation; format: cell-based
# T1 construct: endogenous in cells
# T1 sequence (O60603 21-784): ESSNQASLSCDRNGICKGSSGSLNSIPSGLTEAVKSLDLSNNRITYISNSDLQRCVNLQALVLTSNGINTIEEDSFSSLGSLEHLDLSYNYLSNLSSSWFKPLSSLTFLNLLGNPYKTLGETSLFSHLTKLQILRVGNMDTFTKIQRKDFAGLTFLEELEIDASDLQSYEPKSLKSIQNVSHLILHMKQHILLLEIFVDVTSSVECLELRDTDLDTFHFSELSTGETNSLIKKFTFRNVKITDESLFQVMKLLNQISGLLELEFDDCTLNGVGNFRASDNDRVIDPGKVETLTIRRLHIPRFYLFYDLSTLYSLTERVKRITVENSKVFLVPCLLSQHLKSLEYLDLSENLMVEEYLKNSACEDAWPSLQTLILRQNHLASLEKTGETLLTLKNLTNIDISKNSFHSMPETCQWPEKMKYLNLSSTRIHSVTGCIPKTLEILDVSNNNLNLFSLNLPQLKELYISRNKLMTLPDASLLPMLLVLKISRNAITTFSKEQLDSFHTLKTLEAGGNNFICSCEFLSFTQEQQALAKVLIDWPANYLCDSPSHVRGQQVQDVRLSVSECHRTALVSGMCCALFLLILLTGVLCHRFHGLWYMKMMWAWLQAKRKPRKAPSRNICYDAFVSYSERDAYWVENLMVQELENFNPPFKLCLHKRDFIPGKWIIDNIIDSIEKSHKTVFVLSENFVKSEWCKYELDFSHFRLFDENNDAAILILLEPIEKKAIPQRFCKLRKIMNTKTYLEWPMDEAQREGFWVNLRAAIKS
smiles,measurement,setting,value
CC[C@H](CC[C@@H](C)[C@H]1CC[C@H]2[C@@H]3CC[C@H]4C[C@@H](O)CC[C@]4(C)[C@H]3CC[C@]12C)C(C)C [sitostanol],"IFNγ concentration in the culture medium, change vs. control condition",[1]; FIG. 1,increases
same,"IL-2 concentration in the culture medium, change vs. control condition",[1]; FIG. 1,increases
same,"IL-10 production in PBMCs from asthma patients, change vs. control condition",[1]; FIG. 2,induces IL-10 production
same,Th1 shift via activation of TLR2,TLR2,induces this Th1 shift via activation of TLR2
